The values that follow come from publication PMC9817970 (Cancers, 2022).

The test system of one assay is parental Ba/F3 cells. Description: Anti-proliferative activity on Ba/F3 cells. The conditions noted are these: Mus musculus, BaF3. The format is cell-based. The protocol: (§1) GIST-T1 (Cosmobio, Tokyo, Japan, # PMC-GIST01C-COS) cells were cultured in DMEM (Welgene, # LM001-05) and HMC1.2 (Merck, Darmstadt, Germany, # SCC062) cells were cultured in IMDM (Welgene, # LM004-01). Parental Ba/F3 (DSMZ, Braunschweig, Germany, # ACC300) cells were cultured in RPMI (Welgene, # LM011-51) with 10 ng IL-3/mL (Enzo, # ALX-201-821). The culture media was supplemented with 10% fetal bovine serum and 1% penicillin/streptomycin solution. The cells were maintained in a humidified atmosphere containing 5% CO2 at 37 °C.
(§2) Cells (GIST-T1: 5.0 × 10^3; HMC1.2: 1 × 10^4) were seeded in 96-well plates. Each compound was treated in each well at 10 dose points of 3-fold serial dilution. After treatment with each compound for 72 h, CellTiter-Glo solution (Promega, # G7572) was added to each well. Anti-proliferation activity was measured the luminescence using a 96-well plate reader (EnVision 2013).

The subject of assay [1] is phosphorylated c-KIT (Tyr703) and downstream signaling in GIST-T1 cells. In words: Western blot of c-KIT signaling. The format is cell-based, human. The procedure:
(§3) Cells were harvested and lysed using RIPA buffer containing 50 mM HEPES (pH 7.4), 1% Triton X-100, 2 mM EDTA, 150 mM NaCl, 2.5 mM NaF, 5 mM Na3VO4, and protease inhibitor cocktail tablet (Roche, # 11–878-580–001). Proteins were separated and transferred to an NC membrane. The membranes were blocked using 5% skim milk in TBS-T buffer. The p-c-KIT (Tyr703, # 3073), p-AKT (Ser473, # 9271), p-ERK (Thr202/Tyr204, # 8544), ERK (# 4695), p-PLCγ (Tyr783, # 14008), p-STAT3 (Tyr705, # 4074), and PARP (# 9542) antibodies were obtained from Cell Signaling Technologies. The β-actin (# sc-47778) and STAT3 (# sc-482) antibodies were obtained from Santa Cruz Biotechnology. AKT (A18120) antibody was purchased from ABclonal. Each primary antibody was incubated overnight at 4 °C. The secondary antibody (GenDEPOT) was incubated for 1 h at room temperature. Proteins were detected using ECL substrate.
Background: A western blot detects proteins with antibodies after separation by electrophoresis.

Assay [2] has as its system GIST-T1 cells. Description: Cell cycle arrest analysis (PI flow cytometry). The format is cell-based, human. The conditions noted are these: GIST-T1, 0.01 μM. The procedure: (§4) After compound treatment in GIST-T1 and HMC1.2 cells for 24 h, cells were fixed with 70% cold ethanol. Then, cells were incubated with 50 μg propidium iodide/mL solution (PI, Sigma) containing 1 mg RNase A/mL for 30 min in the dark. Cell cycle arrest was analyzed (BD Accuri), and data were processed using BD Accuri^TM C6 software. For apoptosis analysis, compound treatment for 24–48 h, cells were harvested and stained with annexinV and PI solution. 1 × 10^5 cells were analyzed using flow cytometric analysis.

The subject of assay [3] is c-KIT D816V Ba/F3 cells. Description: Anti-proliferative activity on Ba/F3 cells. The format is cell-based. Conditions: Mus musculus, BaF3.
The subject of assay [4] is HMC1.2 cells. Description: Apoptosis analysis (annexinV/PI flow cytometry). The format is cell-based, human. The conditions noted are these: HMC1.2, 1 μM, 48 h. The protocol: as §4
In general terms: A flow cytometer gives signals particle by particle.

Assay [5] relates to HMC1.2 cells. Description: Cell viability assay (CellTiter-Glo). The format is cell-based, human. Conditions: Homo sapiens, 72 h. The procedure: as §1, §2
In general terms: Cellular ATP, detected with luciferase, serves as a proxy for viable cell number.

For assay [6], the system named is GIST-T1 cells. In words: Soft agar assay (anchorage-independent growth). The conditions noted are these: GIST-T1, two different concentrations, 3 weeks. The format is cell-based, human. The protocol:
Anchorage-independent growth was assessed by determining colony formation on soft agar. GIST-T1 cells in DMEM media containing 0.7% agar were plated at 5,000 cells per well. Cells were treated with each compound for 3 weeks, and the media were changed every 3 days. Colonies were stained using iodonitrotetrazolium chloride (Sigma Aldrich). The average number colonies were counted using ImageJ software (version 1.53e, National Institutes of Health, Bethesda, MD, USA)

Another assay relates to GIST. On the set-up: method as in PMID 32601076. Conditions: fourth-line treatment; cited from earlier work.
Assay [7] concerns c-KIT D816V Ba/F3 cells. In words: Cell cycle arrest analysis (PI flow cytometry). The conditions noted are these: c-KIT D816V Ba/F3, 0.5 μM, 24 h. The format is cell-based.
The test system of assay [8] is GIST-T1 cells. Description: Cell viability assay (CellTiter-Glo). The format is cell-based. Conditions: Homo sapiens, GISTT1; 72 h; concentration causing half-maximal growth inhibition. The procedure: as §1, §2
The test system of assay [9] is c-KIT auto-phosphorylation in HMC1.2 cells. Description: Western blot of c-KIT signaling. The format is cell-based, human. The conditions noted are these: 10 μM. The procedure: as §3
Assay [10] concerns HMC1.2 cells. Description: Cell cycle arrest analysis (PI flow cytometry). The format is cell-based, human. The conditions noted are these: HMC1.2, 0.5 μM, 24 h. The procedure:
as §4

Another assay has as its target c-KIT (Homo sapiens, UniProt P10721). In words: Radiometric biochemical kinase assay on c-KIT. On the set-up: purchased Reaction Biology Corp. (contract assay service). The conditions noted are these: read-out: IC50 against c-KIT. The protocol: (§5) Biochemical kinase assays on c-KIT protein kinase were performed at Reaction Biology Corp. (San Diego, CA, USA). […] The kinase assay followed the manufacturer’s instruction. IC50 values were calculated by GraphPad prism 8.0 software (GraphPad Software, San Diego, CA, USA).
Enzymatic inhibitory activities of all synthesized thiazolo[5,4-b]pyridine derivatives against c-KIT were measured using radiometric biochemical kinase assays (Table 1). We first explored the R1 group of the thiazolo[5,4-b]pyridine scaffold.

The test system of assay [11] is GIST-T1 cells. Description: Migration (wound healing) assay. The conditions noted are these: GIST-T1, 0.005 μM and 0.05 μM, 36 h. The format is cell-based, human. The procedure: GIST-T1 cells were seeded in 6-well plates at 2 × 10^6 cells. Next day, cells were washed with PBS and wounded in the center of each well. Then, GIST-T1 cells were washed with PBS and added to fresh DMEM.

Assay [12] has as its system c-KIT auto-phosphorylation in c-KIT D816V Ba/F3 cells. Description: Western blot of c-KIT signaling. The format is cell-based. The conditions noted are these: 10 μM. The protocol:
as §3

Assay [13] concerns GIST-T1 cells. In words: Apoptosis analysis (annexinV/PI flow cytometry). The format is cell-based, human. Conditions: GIST-T1, 0.05 μM. The protocol:
as §4

The target in another assay is T1, c-KIT V560G/D816V (Homo sapiens, UniProt P10721, D816V/V560G).
T1 construct: purchased Promega VA7063
Description: ADP-Glo kinase assay on c-KIT V560G/D816V. The format is biochemical. Conditions: for IC50: ADP-Glo kinase assay, 10 μM ATP; for fold higher enzymatic inhibitory activity against c-KIT V560G/D816V compared with imatinib: versus imatinib. The procedure:
as §5

The test system of assay [14] is GIST-T1 cells. Description: Invasion assay (Transwell). The format is cell-based, human. The conditions noted are these: GIST-T1, 0.05 μM, 48 h. The procedure:
The cell invasion assay was performed using Transwell membrane filter inserts (Corning Costar Corp., Corning, NY, USA). GIST-T1 cells were then suspended in serum-free DMEM at 2 × 10^6 cells and seeded in the upper chambers. In the lower chambers, the DMEM medium containing 10% FBS was added. After 48 h, the cells migrating down the membrane were stained with crystal violet.

The subject of assay [15] is c-KIT D816V Ba/F3 cells. In words: Apoptosis analysis (annexinV/PI flow cytometry). The format is cell-based. Conditions: c-KIT D816V Ba/F3, 1 μM. The procedure:
as §4

Usually GI50 stands for the concentration giving 50% growth inhibition. What is called IC50 is the midpoint of a concentration-inhibition curve.

Regarding `Cc1ccc(NC(=O)c2ccc(CN3CCN(C)CC3)cc2)cc1Nc1nccc(-c2cccnc2)n1` [imatinib, reference compound], the GI50 amounted to 17000 ± 200 nM in the assay with parental Ba/F3 cells, 12200 ± 2060 nM in the assay on c-KIT D816V Ba/F3 cells [3] and 27100 ± 3360 nM in the assay on HMC1.2 cells [5]. In addition, the “levels of phosphorylated c-KIT (Tyr703) and downstream mediators p-AKT, p-ERK, p-PLCγ, p-STAT3” value (“levels of phosphorylated c-KIT … p-STAT3” for short) in [1] is “remarkably inhibited”. In addition, the “G0/G1 arrest induced compared to control” value with GIST-T1 cells [2] is reported as 25–35%. In addition, the “production of apoptotic cells” value in the assay with HMC1.2 cells [4] is reported as “did not induce apoptosis”. Also, in the assay with GIST-T1 cells [6], the anchorage-independent growth entry is given as “dramatic inhibition”.
As for `CCn1c(=O)c(-c2cc(NC(=O)Nc3ccccc3)c(F)cc2Br)cc2cnc(NC)cc21` [Ripretinib], the overall response rate in the assay with GIST is recorded as 9.4%.
For `Cc1ccc(NC(=O)c2ccc(CN3CCNCC3)c(C(F)(F)F)c2)cc1-c1cnc2sc(N)nc2c1` [6s], the GI50 in the assay on parental Ba/F3 cells was found to be 10500 ± 3590 nM; in the assay on GIST-T1 cells [8], 20 nM; with c-KIT D816V Ba/F3 cells [3], 1060 ± 150 nM; in the assay on HMC1.2 cells [5], 1330 ± 430 nM. Moreover, the “G0/G1 arrest compared with imatinib” value with c-KIT D816V Ba/F3 cells [7] and with HMC1.2 cells [10] was “more strongly” throughout. For the same molecule, the “levels of phosphorylated c-KIT … p-STAT3” value in [1] is recorded as “remarkably inhibited”. Further, the c-KIT auto-phosphorylation entry in assay [9] and in [12] was “completely inhibited” each time. Further, the “G0/G1 arrest induced compared to control” value in the assay with GIST-T1 cells [2] is 25–35%. The figures for the IC50 on c-KIT and against c-KIT V560G/D816V were 370 nM and 7670 ± 2640 nM, respectively. For the same molecule, in the assay with GIST-T1 cells [11], the “cell migration decreased compared to control” value was 50–70%. Also, the “production of apoptotic cells” value in the assay with HMC1.2 cells [4], in the assay on GIST-T1 cells [13] and in the assay with c-KIT D816V Ba/F3 cells [15] was “remarkably induced” throughout. Moreover, on c-KIT V560G/D816V, the “fold higher enzymatic inhibitory activity against c-KIT V560G/D816V compared with imatinib” value is 4.9- to 8.0 fold. Besides, in the assay on GIST-T1 cells [14], the invasion capability entry is on record as “significantly suppressing”.
Regarding `CC(=O)Nc1nc2cc(-c3cc(NC(=O)c4ccc(CN5CCN(C)CC5)c(C(F)(F)F)c4)ccc3C)cnc2s1` [7c], the GI50 in the assay on parental Ba/F3 cells amounted to 10500 ± 3440 nM; in the assay on GIST-T1 cells [8], 10 nM; in the assay on c-KIT D816V Ba/F3 cells [3], 530 ± 60 nM; in the assay on HMC1.2 cells [5], 1520 ± 430 nM. Further, the “G0/G1 arrest compared with imatinib” value in the assay with c-KIT D816V Ba/F3 cells [7] and in the assay on HMC1.2 cells [10] was “more strongly” throughout. Further, the “levels of phosphorylated c-KIT … p-STAT3” value in assay [1] is “remarkably inhibited”. Also, the c-KIT auto-phosphorylation entry in assay [9] and in assay [12] was “completely inhibited” throughout. For the same molecule, in the assay with GIST-T1 cells [2], the “G0/G1 arrest induced compared to control” value was 25–35%. The values for the IC50 at c-KIT and at c-KIT V560G/D816V were 100 nM and 5070 ± 710 nM, respectively. In addition, in the assay with GIST-T1 cells [11], the “cell migration decreased compared to control” value is 50–70%. The “production of apoptotic cells” value with HMC1.2 cells [4], with GIST-T1 cells [13] and in the assay with c-KIT D816V Ba/F3 cells [15] was “remarkably induced” in each case. Further, the “fold higher enzymatic inhibitory activity against c-KIT V560G/D816V compared with imatinib” value on c-KIT V560G/D816V is recorded as 4.9- to 8.0 fold. In addition, in the assay with GIST-T1 cells [14], the invasion capability entry is reported as “significantly suppressing”.
